The record followed here is ChEMBL document CHEMBL5370574, “Discovery and Characterization of Moracin C as an Anti-Gouty Arthritis/Hyperuricemia Candidate by Docking-Based Virtual Screening and Pharmacological Evaluation” (J Nat Prod, 2023).

A word on the IC50: it is the point on the concentration scale where inhibition reaches its midpoint. One may read the Ki as the dissociation constant of the complex between target and ligand, obtained from inhibition or displacement. A high value points to lower affinity. One may read the inhibition as the change of the read-out against control, counted positive when it falls.

For experiment [1], the system named is Rattus norvegicus. Nature of the experiment: Antiarthritic activity against MSU-induced Sprague-Dawley rat OA model assessed as inflammation index at 10 mg/kg, ig administered for 3 days. The following applies: time 3 day. It counts as functional.
The test system of experiment [2] is Rattus norvegicus. Nature of the experiment: Antiarthritic activity against MSU-induced Sprague-Dawley rat OA model assessed as reduction of serum TNF-alpha protein expression level at 10 mg/kg, ig administered for 3 days by ELISA. It counts as functional, organism-based. The following applies: time 3.0 day. A general note: ELISA stands for enzyme-linked immunosorbent assay.

In experiment [3] the test system is Rattus norvegicus. Nature of the experiment: Antiarthritic activity against MSU-induced Sprague-Dawley rat OA model assessed as dysfunction index at 10 mg/kg, ig administered for 3 days. The format is functional. The note with it: time 3 day.
Experiment [4] relates to Rattus norvegicus. The experiment in a line: Antiarthritic activity against MSU-induced Sprague-Dawley rat OA model assessed as toe swelling volume variation at 10 mg/kg, ig administered for 3 days. It counts as functional. The following applies: time 3 day.
Experiment [5] relates to Rattus norvegicus. Nature of the experiment: Antiarthritic activity against MSU-induced Sprague-Dawley rat OA model assessed as dysfunction index at 1 mg/kg, ig administered for 3 days. The format is functional, organism-based. The following applies: time 3.0 day.
The test system of experiment [6] is Rattus norvegicus. The experiment in a line: Antiarthritic activity against MSU-induced Sprague-Dawley rat OA model assessed as toe swelling volume variation at 1 mg/kg, ig administered for 3 days. The format is functional, organism-based. The note with it: time 3.0 day.
For experiment [7], the system named is Rattus norvegicus. The experiment in a line: Antiarthritic activity against MSU-induced Sprague-Dawley rat OA model assessed as reduction in NLRP3 mRNA expression level in tissue joint at 10 mg/kg, ig administered for 3 days by qRT-PCR analysis. The format is functional, organism-based. The following applies: time 3.0 day.
The test system of experiment [8] is Rattus norvegicus. The experiment in a line: Antiarthritic activity against MSU-induced Sprague-Dawley rat OA model assessed as reduction in ASC mRNA expression level in tissue joint at 10 mg/kg, ig administered for 3 days by qRT-PCR analysis. The note with it: time 3.0 day. The format is functional, organism-based. On the technique in general: Quantitative PCR measures a nucleic acid by following its amplification.

The test system of experiment [9] is Rattus norvegicus. Nature of the experiment: Antiarthritic activity against MSU-induced Sprague-Dawley rat OA model assessed as reduction in Caspase-1 mRNA expression level in tissue joint at 10 mg/kg, ig administered for 3 days by qRT-PCR analysis. The note with it: time 3.0 day. It counts as functional, organism-based.
Experiment [10] relates to Rattus norvegicus. Nature of the experiment: Antiarthritic activity against MSU-induced Sprague-Dawley rat OA model assessed as inflammation index at 1 mg/kg, ig administered for 3 days. The format is functional, organism-based. The following applies: time 3.0 day.
In experiment [11] the target is T1, Xanthine dehydrogenase/oxidase (Homo sapiens, UniProt P47989). The experiment in a line: Inhibition of XOD (unknown origin).
T1 sequence (P47989 whole entry): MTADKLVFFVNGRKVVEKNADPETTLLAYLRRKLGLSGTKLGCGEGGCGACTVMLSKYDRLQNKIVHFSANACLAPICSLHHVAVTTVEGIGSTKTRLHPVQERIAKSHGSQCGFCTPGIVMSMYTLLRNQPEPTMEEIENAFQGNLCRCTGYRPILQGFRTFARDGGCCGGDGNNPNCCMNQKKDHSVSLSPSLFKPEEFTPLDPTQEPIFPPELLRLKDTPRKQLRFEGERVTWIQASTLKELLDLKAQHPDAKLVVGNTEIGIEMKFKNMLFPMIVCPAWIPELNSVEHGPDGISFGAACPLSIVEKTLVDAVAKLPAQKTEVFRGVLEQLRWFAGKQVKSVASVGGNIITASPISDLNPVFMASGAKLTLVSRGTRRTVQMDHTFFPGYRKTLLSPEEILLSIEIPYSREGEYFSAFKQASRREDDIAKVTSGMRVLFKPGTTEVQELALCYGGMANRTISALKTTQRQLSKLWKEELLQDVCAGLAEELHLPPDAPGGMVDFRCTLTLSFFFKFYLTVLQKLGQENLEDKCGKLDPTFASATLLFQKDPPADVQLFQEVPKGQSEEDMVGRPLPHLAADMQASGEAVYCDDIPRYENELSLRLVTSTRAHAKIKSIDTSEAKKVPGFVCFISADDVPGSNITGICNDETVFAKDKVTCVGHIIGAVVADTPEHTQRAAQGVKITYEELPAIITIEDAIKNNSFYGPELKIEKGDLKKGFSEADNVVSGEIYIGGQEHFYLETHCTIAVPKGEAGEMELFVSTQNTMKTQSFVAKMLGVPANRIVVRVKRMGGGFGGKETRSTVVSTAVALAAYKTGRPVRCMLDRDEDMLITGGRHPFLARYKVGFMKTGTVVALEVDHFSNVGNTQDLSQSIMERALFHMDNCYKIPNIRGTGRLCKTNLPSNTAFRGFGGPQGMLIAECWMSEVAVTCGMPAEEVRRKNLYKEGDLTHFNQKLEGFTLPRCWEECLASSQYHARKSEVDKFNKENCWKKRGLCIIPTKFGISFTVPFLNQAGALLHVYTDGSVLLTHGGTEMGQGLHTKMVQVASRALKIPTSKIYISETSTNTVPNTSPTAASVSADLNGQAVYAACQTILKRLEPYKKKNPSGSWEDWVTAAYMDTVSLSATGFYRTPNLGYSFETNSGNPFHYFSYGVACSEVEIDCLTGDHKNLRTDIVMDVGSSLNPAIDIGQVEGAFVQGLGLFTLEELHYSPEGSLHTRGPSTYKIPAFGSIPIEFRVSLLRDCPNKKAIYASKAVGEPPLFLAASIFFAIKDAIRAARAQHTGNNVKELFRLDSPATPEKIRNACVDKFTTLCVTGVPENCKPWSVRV
Experiment [12] deals with T2, Solute carrier family 22 member 12 (Homo sapiens, UniProt Q96S37).
T2 sequence (Q96S37 whole entry): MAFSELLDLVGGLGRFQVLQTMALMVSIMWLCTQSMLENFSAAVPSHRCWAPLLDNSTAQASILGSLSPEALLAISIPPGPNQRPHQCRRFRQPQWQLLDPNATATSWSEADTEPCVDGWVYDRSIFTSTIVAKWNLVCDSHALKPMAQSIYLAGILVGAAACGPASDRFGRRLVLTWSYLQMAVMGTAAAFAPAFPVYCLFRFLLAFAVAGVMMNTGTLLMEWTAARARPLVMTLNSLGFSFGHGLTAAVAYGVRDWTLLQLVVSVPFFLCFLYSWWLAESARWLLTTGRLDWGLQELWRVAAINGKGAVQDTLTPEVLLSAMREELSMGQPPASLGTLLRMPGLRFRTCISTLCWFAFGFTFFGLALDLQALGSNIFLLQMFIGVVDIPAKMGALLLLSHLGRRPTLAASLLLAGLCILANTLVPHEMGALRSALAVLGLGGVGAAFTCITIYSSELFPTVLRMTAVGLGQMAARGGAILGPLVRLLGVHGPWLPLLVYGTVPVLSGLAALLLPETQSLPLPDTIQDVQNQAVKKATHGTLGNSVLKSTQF
Nature of the experiment: Inhibition of URAT1(unknown origin).

Experiment [13] concerns the target T1, Xanthine dehydrogenase/oxidase. Nature of the experiment: Inhibition of XOD (unknown origin) using xanthine as substrate at 1 uM preincubated for 30 mins followed by xanthine addition measured after 30 mins by microplate reader relative to control. The following applies: 0.5 h, time 60 min.
For experiment [14] the target is unchanged. Nature of the experiment: Inhibition of XOD (unknown origin) using xanthine as substrate preincubated for 30 mins followed by xanthine addition measured after 30 mins by microplate reader.
Experiment [15] concerns Mus musculus. Nature of the experiment: Hypouricemic activity in hypoxanthine/potassium oxonate-induced hyperuricemic Kunming mouse model assessed as decrease in serum XOD level at 10 mg/kg, po administered for 7 days measured 4 hrs post last dose by automatic biochemical analyzer. It counts as functional, organism-based. The note with it: time 7.0 day.
Experiment [16] has as its system Mus musculus. The experiment in a line: Hypouricemic activity in hypoxanthine/potassium oxonate-induced hyperuricemic Kunming mouse model assessed as decrease in liver XOD level at 10 mg/kg, po administered for 7 days measured 4 hrs post last dose by automatic biochemical analyzer. It counts as functional, organism-based. The following applies: time 7.0 day.

Calls of active or inactive are those of the source. No cut-off for these calls is given here.

As to `COc1cc2c(c(OC)c1OC)-c1ccc(OC)c(=O)cc1[C@@H](NC(C)=O)CC2` [COLCHICINE], the Activity_index in [1] was 0.6; in [3], 0. Further, the result in experiment [2], in experiment [5], in experiment [6], in experiment [7], in experiment [8] and in experiment [9] was Active. Further, the result in experiment [10] was Active. Moreover, in experiment [4], the Activity was 0.03 mL.
With `O=c1c(O)c(-c2ccc(O)cc2O)oc2cc(O)cc(O)c12` [MORIN], the concentration for half-maximal inhibition (IC50) in experiment [11] worked out at 25 µM. The affinity in experiment [12] corresponds to a Ki of 2000 nM.
Molecule `CC1(C)C=Cc2c(ccc3c2O[C@H]2c4ccc(O)cc4OC[C@@H]32)O1` [PHASEOLIN] yielded an inhibition at 1 µM in experiment [13] below 20%.
`COc1ccc(-c2cc(=O)c3c(O)c(OC)c(OC)cc3o2)cc1` [SALVIGENIN]: the inhibition at 1 µM in experiment [13] is below 20%.
Take `Cc1nc(-c2ccc(OCC(C)C)c(C#N)c2)sc1C(=O)O` [FEBUXOSTAT]: in experiment [13], 1 µM produced 75% inhibition. The molecule further yielded an IC50 in [14] of 160 nM. In addition, the result in [15] and in experiment [16] was Active.
